According to patent publication US20250129028A1, “COMPOUNDS AND METHODS FOR YAP/TEAD MODULATION AND INDICATIONS THEREFOR” (Opna Bio SA, priority 2022, published 2025):

System: TEAD-dependent transcription
Test: TEAD-dependent transcription cell-based reporter assay (MSTO-211H+12XGTIIC luciferase)
Parameters: species or system human
Conditions: Homo sapiens; MSTO-211H+12XGTIIC cell line, luciferase signal normalized to cell viability, 24 hours compound incubation; read-out: MSTO-211H GMean IC50 (uM) Cell Assay Reporter Cell Variant: TEAD
Outline: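 MSTO-211H mesothelioma cells stably carrying a 12xGTIIC TEAD-response-element luciferase reporter, treated with serial compound dilutions for 24 h at 37 °C. Luminescence normalized to CellTiter-Fluor viability signal; % inhibition versus DMSO and 20 μM K-975 controls, IC50 by nonlinear regression.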

| SMILES | IC50 [µM] |
| --- | --- |
| CS(=O)(=O)c1cccnc1C(=O)N1CCc2ccc(Oc3ccc(C(F)(F)F)cc3)cc2C1 [P-0074, (3-(methylsulfonyl)pyr-idin-2-yl)(7-(4-(trifluoro-methyl)phenoxy)-3,4-dihydroisoquinolin-2(1H)-yl)methanone] | 0.001 to 10 |
| O=C(Cc1nnn[nH]1)N1CCc2ccc(Oc3ccc(C(F)(F)F)c(F)c3)cc2C1 [P-0148, 1-(7-(3-fluoro-4-(trifluoromethyl)phen-oxy)-3,4-dihydroisoquin-olin-2(1H)-yl)-2-(1H-tetrazol-5-yl)ethan-1-one] | 0.001 to 10 |
| O=C(O)CCC(=O)N1CCc2ccc(Oc3ccc(C(F)(F)F)cc3)cc2C1 [P-0057, 4-oxo-4-(7-(4-(trifluoro-methyl)phenoxy)-3,4-dihydroisoquinolin-2(1H)-yl)butanoic acid] | 0.001 to 10 |
| O=C(C1CCNC1)N1CCc2ccc(Oc3ccc(C(F)(F)F)c(F)c3)cc2C1 (stereo not drawn) [P-0145, (7-(3-fluoro-4-(trifluoro-methyl)phenoxy)-3,4-dihydroisoquinolin-2(1H)-yl)(pyrrolidin-3-yl)methanone] | 0.001 to 10 |
| CN1CC(C(=O)N2CCc3ccc(Oc4ccc(C(F)(F)F)c(F)c4)cc3C2)C1 [P-0097, (7-(3-fluoro-4-(trifluoro-methyl)phenoxy)-3,4-dihydroisoquinolin-2(1H)-yl)(1-methylazet-idin-3-yl)methanone] | 0.001 to 10 |
| O=C(Cc1ncc[nH]1)N1CCc2ccc(Oc3ccc(C(F)(F)F)cc3)cc2C1 [P-0165, 2-(1H-imidazol-2-yl)-1-(7-(4-(trifluoromethyl)-phenoxy)-3,4-dihydroiso-quinolin-2(1H)-yl)ethan-1-one] | 0.001 to 10 |
| NC(=O)CCN1CCc2ccc(Oc3ccc(C(F)(F)F)cc3)cc2C1 [P-0029, 3-(7-(4-(trifluorometh-yl)phenoxy)-3,4-dihydro-isoquinolin-2(1H)-yl)-propanamide] | 10 to 100 |
| O=C1CC(C(=O)N2CCc3ccc(Oc4ccc(C(F)(F)F)cc4)cc3C2)CN1 (stereo not drawn) [P-0088, 4-(7-(4-(trifluorometh-yl)phenoxy)-1,2,3,4-tetrahydroisoquinoline-2-carbonyl)pyrrolidin-2-one] | 0.001 to 10 |
| O=C(Cc1cocn1)N1CCc2c(cccc2Oc2ccc(C(F)(F)F)cc2)C1 [P-0246, 2-(oxazol-4-yl)-1-(5-(4-(trifluoromethyl)phen-oxy)-3,4-dihydroisoquin-olin-2(1H)-yl)ethan-1-one] | 0.001 to 10 |
| O=C(C1CCC1)N1CCc2ccc(Oc3ccc(C(F)(F)F)cc3)cc2C1 [P-0033, cyclobutyl(7-(4-(trifluoro-methyl)phenoxy)-3,4-dihydroisoquinolin-2(1H)-yl)methanone] | 0.001 to 10 |
| C=CC(=O)N1CCC(C2c3cc(Oc4ccc(C(F)(F)F)cc4)ccc3CCN2C(=O)CCS(C)(=O)=O)CC1 (stereo not drawn) [P-0223, 1-(4-(2-(3-(methylsulfon-yl)propanoyl)-7-(4-(trifluoromethyl)phen-oxy)-1,2,3,4-tetrahydro-isoquinolin-1-yl)piper-idin-1-yl)prop-2-en-1-one] | 0.001 to 10 |
| CC(C)(C)OC(=O)NCC(=O)N1CCc2ccc(Oc3ccc(C(F)(F)F)c(F)c3)cc2C1 [P-0112, tert-butyl (2-(7-(3-fluoro-4-(trifluoromethyl)phen-oxy)-3,4-dihydroisoquin-olin-2(1H)-yl)-2-oxoeth-yl)carbamate] | 0.001 to 10 |
| O=C(C1CCNCC1)N1CCc2ccc(Oc3ccc(C(F)(F)F)c(F)c3)cc2C1 [P-0147, (7-(3-fluoro-4-(trifluoro-methyl)phenoxy)-3,4-dihydroisoquinolin-2(1H)-yl)(piperidin-4-yl)-methanone] | 0.001 to 10 |
| CN1CCN(CCC(=O)N2CCc3ccc(Oc4ccc(C(F)(F)F)c(F)c4)cc3C2)CC1 [P-0095, 1-(7-(3-fluoro-4-(trifluoromethyl)phenoxy)-3,4-dihydroisoquinolin-2(1H)-yl)-3-(4-methylpiperazin-1-yl)propan-1-one] | 0.001 to 10 |
| CS(=O)(=O)CCCN1CCc2ccc(Oc3ccc(C(F)(F)F)cc3)cc2C1 [P-0053, 2-(3-(methylsulfonyl)-propyl)-7-(4-(trifluoro-methyl)phenoxy)-1,2,3,4-tetrahydroisoquinoline] | 0.001 to 10 |
| Nc1nc(CC(=O)N2CCc3ccc(Oc4ccc(C(F)(F)F)cc4)cc3C2)cs1 [P-0137, 2-(2-aminothiazol-4-yl)-1-(7-(4-(trifluoromethyl)-phenoxy)-3,4-dihydroiso-quinolin-2(1H)-yl)ethan-1-one] | 0.001 to 10 |
| C=CC(=O)N1CCC(C(=O)N2CCc3c(cccc3Oc3ccc(C(F)(F)F)cc3)C2)C1 (stereo not drawn) [P-0253, 1-(3-(5-(4-(trifluorometh-yl)phenoxy)-1,2,3,4-tetrahydroisoquinoline-2-carbonyl)pyrrolidin-1-yl)prop-2-en-1-one] | 0.001 to 10 |
| O=C(C1CS(=O)(=O)C1)N1CCc2ccc(Oc3ccc(C(F)(F)F)cc3)cc2C1 [P-0077, (1,1-dioxidothietan-3-yl)(7-(4-(trifluorometh-yl)phenoxy)-3,4-dihydro-isoquinolin-2(1H)-yl)-methanone] | 0.001 to 10 |
| NC(=O)N1CCc2ccc(Oc3ccc(C(F)(F)F)cc3)cc2C1 [P-0010, 7-(4-(trifluoromethyl)-phenoxy)-3,4-dihydroiso-quinoline-2(1H)-carbox-amide] | 0.001 to 10 |
| CC(=O)N1CCC(c2c(Oc3ccc(C(F)(F)F)cc3)ccc3c2CN(C(=O)CCS(C)(=O)=O)CC3)CC1 [P-0213, 1-(8-(1-acetylpiperidin-4-yl)-7-(4-(trifluorometh-yl)phenoxy)-3,4-dihydro-isoquinolin-2(1H)-yl)-3-(methylsulfonyl)pro-pan-1-one] | 0.001 to 10 |
| CCCCS(=O)(=O)N1CCc2ccc(Oc3ccc(C(F)(F)F)cc3)cc2C1 [P-0034, 2-(butylsulfonyl)-7-(4-(trifluoromethyl)phen-oxy)-1,2,3,4-tetrahydro-isoquinoline] | 0.001 to 10 |
